Laboratory results as given in paper PMC6152747, “Lipophilicity Studies on Thiosemicarbazide Derivatives” (Molecules : A Journal of Synthetic Chemistry and Natural …, 2017).

Tested on: not listed separately
Experiment: physchem
Assay type: physicochemical
Settings: Table 1; retention factor extrapolated to pure water (Eq. 1), methanol 45–75%, RP-18, 25 °C
Method: Methanolic solutions (5 μL, 0.1%) of selected samples were applied to the chromatographic column (RP-18 Waters Symmetry, 15 cm length, 4.6 mm i.d., 5 μm particle size) by use of an autosampler Hitachi L-2200 (LaChrom Elite, Hitachi-Merck, Darmstadt, Germany). The mobile phase, consisting of a methanol and water mixture, was degassed by use of the built-in membrane degasser. […] Chromatograms were detected at 254 nm and the temperature of the column was 25 °C. All experiments were repeated in triplicate and the final results were taken to be the arithmetic means. Dead time was measured by use of uracil (Calbiochem. Merck, Darmstadt, Germany). All experiments were performed at ambient temperature.

First: Cc1occc1C(=O)NNC(=S)NC(=O)c1ccccc1 [Compound 1]
Second: O=C(NC(=S)NNC(=O)c1ccc[nH]1)c1ccccc1 [Compound 2]
The logkw of the first is higher: 2.9992 for the first, 2.5105 for the second.

Going from `O=C(CS(=O)(=O)c1ccccc1)NNC(=S)NC(=O)c1ccccc1Cl` [Compound 10] to `O=C(NNC(=S)NC(=O)c1ccccc1Cl)c1ccccc1O` [Compound 3], the logkw rises from 3.2498 to 4.2230.

Compared with `O=C(NNC(=S)NC1CCCCC1)c1ccccc1O` [Compound 13], `O=C(NNC(=S)NC1CCCCC1)c1cccc(O)c1` [Compound 17] is lower in logkw: 3.2386 for the first, 2.7583 for the second.

Compared with `O=C(NNC(=S)Nc1ccccc1)c1ccccc1O` [Compound 12], `O=C(NNC(=S)Nc1ccc(Cl)cc1)c1ccccc1O` [Compound 11] is higher in logkw: 2.4813 for the first, 3.3324 for the second.

Going from `COc1cccc(C(=O)NNC(=S)NC(=O)c2ccccc2Cl)c1` [Compound 7] to `COc1cccc(C(=O)NNC(=S)NC(=O)c2ccccc2C)c1` [Compound 5], the logkw falls from 3.8283 to 3.4487.

First: Cc1ccc(NC(=S)NNC(=O)c2ccccc2O)cc1Cl [Compound 15]
Second: O=C(NNC(=S)Nc1ccc(Cl)c(Cl)c1)c1ccccc1O [Compound 14]
The logkw of the first is lower: 3.9451 for the first, 4.1453 for the second.

`COc1cccc(C(=O)NNC(=S)NC(=O)c2cccc(Cl)c2)c1` [Compound 8] and `COc1cccc(C(=O)NNC(=S)NC(=O)c2cccc(C)c2)c1` [Compound 6] are within 0.2 log units of each other in logkw: 3.7422 for the first, 3.7864 for the second.

Going from `O=C(NNC(=S)Nc1ccccc1)c1cccc(O)c1` [Compound 16] to `COc1cccc(C(=O)NNC(=S)NC(=O)c2ccccc2)c1` [Compound 4], the logkw rises from 2.0687 to 3.3130.

Molecule `COc1cccc(C(=O)NNC(=S)NC(=O)c2ccc(Cl)cc2)c1` [Compound 9] has a logkw of 3.9422.

Same assay, conditions: Table 1; slope of logk vs. methanol concentration (Eq. 1)

Going from `Cc1occc1C(=O)NNC(=S)NC(=O)c1ccccc1` [Compound 1] to `O=C(NC(=S)NNC(=O)c1ccc[nH]1)c1ccccc1` [Compound 2], the “−S” value falls from 4.3720 to 4.1416.

First: O=C(CS(=O)(=O)c1ccccc1)NNC(=S)NC(=O)c1ccccc1Cl [Compound 10]
Second: O=C(NNC(=S)NC(=O)c1ccccc1Cl)c1ccccc1O [Compound 3]
The “−S” value of the first is lower: 5.7291 for the first, 6.1166 for the second.

Going from `O=C(NNC(=S)NC1CCCCC1)c1ccccc1O` [Compound 13] to `O=C(NNC(=S)NC1CCCCC1)c1cccc(O)c1` [Compound 17], the “−S” value falls from 4.7076 to 4.3297.

Compared with `O=C(NNC(=S)Nc1ccccc1)c1ccccc1O` [Compound 12], `O=C(NNC(=S)Nc1ccc(Cl)cc1)c1ccccc1O` [Compound 11] is higher in “−S” value: 4.1962 for the first, 4.8778 for the second.

Going from `COc1cccc(C(=O)NNC(=S)NC(=O)c2ccccc2Cl)c1` [Compound 7] to `COc1cccc(C(=O)NNC(=S)NC(=O)c2ccccc2C)c1` [Compound 5], the “−S” value falls from 5.6579 to 4.8562.

Compared with `Cc1ccc(NC(=S)NNC(=O)c2ccccc2O)cc1Cl` [Compound 15], `O=C(NNC(=S)Nc1ccc(Cl)c(Cl)c1)c1ccccc1O` [Compound 14] is higher in “−S” value: 5.5432 for the first, 5.6538 for the second.

Compared with `COc1cccc(C(=O)NNC(=S)NC(=O)c2cccc(Cl)c2)c1` [Compound 8], `COc1cccc(C(=O)NNC(=S)NC(=O)c2cccc(C)c2)c1` [Compound 6] is higher in “−S” value: 5.0742 for the first, 5.1137 for the second.

Going from `O=C(NNC(=S)Nc1ccccc1)c1cccc(O)c1` [Compound 16] to `COc1cccc(C(=O)NNC(=S)NC(=O)c2ccccc2)c1` [Compound 4], the “−S” value rises from 4.1968 to 4.8205.

For `COc1cccc(C(=O)NNC(=S)NC(=O)c2ccc(Cl)cc2)c1` [Compound 9], the “−S” value was 5.3417.

Same assay, conditions: Table 2; retention factor extrapolated to pure water

Going from `Cc1occc1C(=O)NNC(=S)NC(=O)c1ccccc1` [Compound 1] to `O=C(NC(=S)NNC(=O)c1ccc[nH]1)c1ccccc1` [Compound 2], the logkw falls from 2.9992 to 2.5105.

Compared with `O=C(CS(=O)(=O)c1ccccc1)NNC(=S)NC(=O)c1ccccc1Cl` [Compound 10], `COc1cccc(C(=O)NNC(=S)NC(=O)c2ccccc2Cl)c1` [Compound 7] is higher in logkw: 3.2498 for the first, 3.8283 for the second.

First: O=C(NNC(=S)NC1CCCCC1)c1ccccc1O [Compound 13]
Second: O=C(NNC(=S)NC1CCCCC1)c1cccc(O)c1 [Compound 17]
The logkw of the first is higher: 3.2386 for the first, 2.7583 for the second.

Compared with `O=C(NNC(=S)Nc1ccccc1)c1ccccc1O` [Compound 12], `O=C(NNC(=S)Nc1ccc(Cl)cc1)c1ccccc1O` [Compound 11] is higher in logkw: 2.4813 for the first, 3.3324 for the second.

`COc1cccc(C(=O)NNC(=S)NC(=O)c2ccccc2C)c1` [Compound 5] and `COc1cccc(C(=O)NNC(=S)NC(=O)c2ccccc2)c1` [Compound 4] are within 0.2 log units of each other in logkw: 3.4487 for the first, 3.3130 for the second.

First: Cc1ccc(NC(=S)NNC(=O)c2ccccc2O)cc1Cl [Compound 15]
Second: O=C(NNC(=S)Nc1ccc(Cl)c(Cl)c1)c1ccccc1O [Compound 14]
The logkw of the first is lower: 3.9451 for the first, 4.1453 for the second.

`COc1cccc(C(=O)NNC(=S)NC(=O)c2cccc(Cl)c2)c1` [Compound 8] and `COc1cccc(C(=O)NNC(=S)NC(=O)c2cccc(C)c2)c1` [Compound 6] are within 0.2 log units of each other in logkw: 3.7422 for the first, 3.7864 for the second.

Compared with `O=C(NNC(=S)Nc1ccccc1)c1cccc(O)c1` [Compound 16], `COc1cccc(C(=O)NNC(=S)NC(=O)c2ccc(Cl)cc2)c1` [Compound 9] is higher in logkw: 2.0687 for the first, 3.9422 for the second.

Same assay, conditions: Table S2; parameters of Eq. 1

First: CCc1ccccc1 [ethylbenzene, reference compound]
Second: Brc1ccccc1 [bromobenzene, reference compound]
The logkw of standards of the first is higher: 3.4018 for the first, 3.0842 for the second.

Going from `Oc1ccc2ccccc2n1` [2-hydroxyquinoline, reference compound] to `c1ccc2ccccc2c1` [naphtalene, reference compound], the logkw of standards rises from 1.4879 to 3.5779.

First: Nc1ccccc1 [aniline, reference compound]
Second: c1ccccc1 [benzene, reference compound]
The logkw of standards of the first is lower: 1.1365 for the first, 2.2458 for the second.

Same assay, conditions: Table S2; slope of Eq. 1

Compared with `Cc1ccccc1` [toluene, reference compound], `Brc1ccccc1` [bromobenzene, reference compound] is higher in “– S of standards” value: 3.4400 for the first, 3.6630 for the second.

Going from `CCc1ccccc1` [ethylbenzene, reference compound] to `Nc1ccccc1` [aniline, reference compound], the “– S of standards” value falls from 3.8740 to 2.4091.

First: Oc1ccc2ccccc2n1 [2-hydroxyquinoline, reference compound]
Second: c1ccc2ccccc2c1 [naphtalene, reference compound]
The “– S of standards” value of the first is lower: 2.9059 for the first, 4.2289 for the second.

With `c1ccccc1` [benzene, reference compound] the “– S of standards” value was 2.8691.

Same assay, conditions: from logkw by calibration curve with seven OECD standards (Eq. 3)

For `O=C(NNC(=S)Nc1ccc(Cl)cc1)c1ccccc1O` [Compound 11], the logPHPLC was 3.4026.

Same assay, conditions: from logkw by calibration curve with seven OECD standards (Eq. 3); read-out: logPHPLC

First: Cc1occc1C(=O)NNC(=S)NC(=O)c1ccccc1 [Compound 1]
Second: O=C(NC(=S)NNC(=O)c1ccc[nH]1)c1ccccc1 [Compound 2]
The chromatographic logP of the first is higher: 3.05 for the first, 2.53 for the second.

Going from `O=C(CS(=O)(=O)c1ccccc1)NNC(=S)NC(=O)c1ccccc1Cl` [Compound 10] to `O=C(NNC(=S)NC(=O)c1ccccc1Cl)c1ccccc1O` [Compound 3], the chromatographic logP rises from 3.31 to 4.36.

Compared with `O=C(NNC(=S)NC1CCCCC1)c1ccccc1O` [Compound 13], `O=C(NNC(=S)NC1CCCCC1)c1cccc(O)c1` [Compound 17] is lower in chromatographic logP: 3.3 for the first, 2.79 for the second.

First: O=C(NNC(=S)Nc1ccccc1)c1ccccc1O [Compound 12]
Second: O=C(NNC(=S)Nc1ccccc1)c1cccc(O)c1 [Compound 16]
The chromatographic logP of the first is higher: 2.49 for the first, 2.05 for the second.

Going from `COc1cccc(C(=O)NNC(=S)NC(=O)c2ccccc2Cl)c1` [Compound 7] to `COc1cccc(C(=O)NNC(=S)NC(=O)c2ccccc2C)c1` [Compound 5], the chromatographic logP falls from 3.93 to 3.53.

First: Cc1ccc(NC(=S)NNC(=O)c2ccccc2O)cc1Cl [Compound 15]
Second: O=C(NNC(=S)Nc1ccc(Cl)c(Cl)c1)c1ccccc1O [Compound 14]
The chromatographic logP of the first is lower: 4.06 for the first, 4.27 for the second.

`COc1cccc(C(=O)NNC(=S)NC(=O)c2cccc(Cl)c2)c1` [Compound 8] and `COc1cccc(C(=O)NNC(=S)NC(=O)c2cccc(C)c2)c1` [Compound 6] are within 0.2 log units of each other in chromatographic logP: 3.84 for the first, 3.89 for the second.

Compared with `COc1cccc(C(=O)NNC(=S)NC(=O)c2ccc(Cl)cc2)c1` [Compound 9], `COc1cccc(C(=O)NNC(=S)NC(=O)c2ccccc2)c1` [Compound 4] is lower in chromatographic logP: 4.05 for the first, 3.38 for the second.

Same assay, conditions: same chromatographic conditions as compounds 1–17

`CCc1ccccc1` [ethylbenzene, reference compound] and `c1ccc2ccccc2c1` [naphtalene, reference compound] are within 0.2 log units of each other in logkw of standards: 3.3754 for the first, 3.5502 for the second.

Work on `Oc1ccc2ccccc2n1` [2-hydroxyquinoline, reference compound] yielded a logkw of standards of 1.3682.

Tested on: not given
Experiment: not given
Parameters: method as in earlier work
Settings: octanol–water; OECD guidelines; cited from earlier work

In the case of `c1ccc2ccccc2c1` [naphtalene, reference compound], the “known logPo/w of standards” value is listed as 3.6.

Molecular target: S. aureus DNA gyrase
Experiment: not given
Settings: previously tested, read-out: Inhibitory Potency IC50 DNA Gyrase; cited from earlier work

First: Cc1occc1C(=O)NNC(=S)NC(=O)c1ccccc1 [Compound 1]
Second: O=C(NC(=S)NNC(=O)c1cccs1)c1ccccc1 [Compound 19]
The IC50 of the first is 5.7-fold lower: 14.6 µM for the first, 83.6 µM for the second. The first is the more potent here.

First: O=C(NNC(=S)Nc1ccc(F)cc1)c1cc2ccccc2[nH]1 [Compound 23]
Second: O=C(NNC(=S)Nc1ccc([N+](=O)[O-])cc1)c1ccc[nH]1 [Compound 27]
The IC50 of the first is 2-fold higher: 128 µM for the first, 64.2 µM for the second.

For `O=C(NC(=S)NNC(=O)c1ccc[nH]1)c1ccccc1` [Compound 2], the IC50 is listed as 93.3 µM.

Molecular target: S. aureus topoisomerase IV (topo IV)
Experiment: not given
Settings: previously tested, read-out: Inhibitory Potency IC50 Topo IV; cited from earlier work

First: O=C(NNC(=S)Nc1ccc([N+](=O)[O-])cc1)c1cc2ccccc2[nH]1 [Compound 21]
Second: O=C(NNC(=S)Nc1ccc(F)cc1)c1cc2ccccc2[nH]1 [Compound 23]
The IC50 of the first is 19-fold lower: 14 µM for the first, 267 µM for the second. The first is the more potent here.

Compared with `O=C(NNC(=S)Nc1ccccc1F)c1cc2ccccc2[nH]1` [Compound 22], `O=C(NNC(=S)Nc1ccc(F)cc1F)c1cc2ccccc2[nH]1` [Compound 24] is 4.6-fold higher in IC50: 63.5 µM for the first, 295 µM for the second.

First: O=C(NC(=S)NNC(=O)c1cc2ccccc2[nH]1)c1ccccc1 [Compound 18]
Second: O=C(NC(=S)NNC(=O)c1ccc[nH]1)c1ccccc1 [Compound 2]
The IC50 of the first is 2.9-fold lower: 14 µM for the first, 41 µM for the second. The first is the more potent here.

Going from `Cc1nc[nH]c1C(=O)NNC(=S)NC(=O)c1ccccc1` [Compound 20] to `Cc1nnsc1C(=O)NNC(=S)Nc1ccc(Br)cc1` [Compound 28], the IC50 rises from 90 µM to 403 µM (4.5-fold). The first is the more potent here.

Same assay, conditions: previously tested; cited from earlier work

For `O=C(NNC(=S)Nc1ccc(F)cc1)c1cc2ccccc2[nH]1` [Compound 23], the “Inhibitory Potency IC50 Topo IV” value is listed as “weak inhibitory potency”.
For `O=C(NNC(=S)Nc1ccccc1F)c1cc2ccccc2[nH]1` [Compound 22], the “Inhibitory Potency IC50 Topo IV” value is listed as “weak inhibitory potency”.
In the case of `O=C(NNC(=S)Nc1ccc(F)cc1F)c1cc2ccccc2[nH]1` [Compound 24], the “Inhibitory Potency IC50 Topo IV” value is listed as “weak inhibitory potency”.
In the case of `O=C(NC(=S)NNC(=O)c1cc2ccccc2[nH]1)c1ccccc1` [Compound 18], the “Inhibitory Potency IC50 Topo IV” value is given as “anti-topo IV activity”.
In the case of `O=C(NC(=S)NNC(=O)c1ccc[nH]1)c1ccccc1` [Compound 2], the “Inhibitory Potency IC50 Topo IV” value is listed as “anti-topo IV activity”.
For `Cc1nc[nH]c1C(=O)NNC(=S)NC(=O)c1ccccc1` [Compound 20], the “Inhibitory Potency IC50 Topo IV” value is given as “anti-topo IV activity”.
